Legend:
[1] = tested on: KG-1 cells; assay: Antiproliferative activity against KG-1 cells (CCK8); format: cell-based; conditions: Homo sapiens, 72 h incubation, CCK8 method
Protocol: KG-1 cells in the logarithmic growth phase were diluted in a culture medium (RPMI+10% FBS) and plated onto 96-well plates at 5000 cells/well, and the plates were incubated in an incubator at 37° C. with 5% CO2 for 24 h. 10 mM stock solutions of the test compounds of the present disclosure in DMSO were prepared and diluted with the culture medium to set 9 concentration gradients. 3 replicate wells were set for each concentration. After compound addition, the plates were incubated in an incubator at 37° C. with 5% CO2 for 72 h. The cell proliferation was assessed using the CCK8 method. The cell growth inhibition IC50 values of the compounds were determined using an enzyme labeling method. The IC50 values were calculated using GraphPad Prism 7 software.
The antiproliferative activity of the compounds against KG-1 cells is shown in Table 2, where A represents IC50≤30 nM, B represents 30<IC50≤300 nM, and C represents IC50>300 nM.

[2] = target: T1, GSPT1 protein (Homo sapiens, UniProt P15170+Q96SW2); assay: Degradation of GSPT1 in KG-1 cells (Western blot); format: cell-based; conditions: compound concentration 200 nM, 4 h incubation
T1 construct: Whole cell lysates were prepared; endogenous in cells; host or cells: KG-1 cells
Protocol: KG-1 cells were grown in an IMDM culture medium (containing 20% FBS). After centrifugation and counting, the cell concentration was adjusted. The cells were plated onto 6-well plates at 10^6 cells/well, with 1350 μL per well. 150 μL of DMSO and the test compounds of the present disclosure (compound concentration: 200 nM) were added. The plates were incubated in an incubator at 37° C. with 5% CO2 for 4 h. The cells were centrifuged, and the culture medium was discarded. PBS was added to wash the cells and then discarded. Whole cell lysates were prepared using a protease inhibitor cocktail (100×, Fude Biological), a protein phosphatase inhibitor cocktail (100×, Fude Biological), Super Nuclease (Beyotime), and a high-intensity RIPA lysis buffer (Thermo Fisher) and placed on ice for 30 min. After centrifugation, the cell debris precipitates were discarded, and the whole cell lysate supernatants were collected and transferred to new centrifuge tubes. After a BCA protein assay, samples were prepared using a 5× loading buffer (Thermo Fisher). The samples were subjected to protein electrophoresis separation in a 4-20% precast gel (SDS-PAGE gel), transferred to a PVDF membrane, blocked with 5% NFDM/TBST at room temperature for 1 h, incubated overnight with primary antibodies at 4° C., and incubated with a secondary antibody at room temperature for 2 h the next day. Signals were detected using a MINICHEMITM imaging system.
• Anti-GSPT1: Abcam ab234433 • Anti-beta actin: Fude Biological FD0060
• Anti-rabbit peroxidase-linked secondary antibody: Fude Biological FDG007
The degradation effects of the compounds on GSPT1 protein are shown in Table 1, where A represents a GSPT1 protein degradation percentage of no less than 70%, B represents a degradation percentage of less than 70% but no less than 30%, and C represents a degradation percentage of less than 30%.

T1 sequence (P15170 whole entry): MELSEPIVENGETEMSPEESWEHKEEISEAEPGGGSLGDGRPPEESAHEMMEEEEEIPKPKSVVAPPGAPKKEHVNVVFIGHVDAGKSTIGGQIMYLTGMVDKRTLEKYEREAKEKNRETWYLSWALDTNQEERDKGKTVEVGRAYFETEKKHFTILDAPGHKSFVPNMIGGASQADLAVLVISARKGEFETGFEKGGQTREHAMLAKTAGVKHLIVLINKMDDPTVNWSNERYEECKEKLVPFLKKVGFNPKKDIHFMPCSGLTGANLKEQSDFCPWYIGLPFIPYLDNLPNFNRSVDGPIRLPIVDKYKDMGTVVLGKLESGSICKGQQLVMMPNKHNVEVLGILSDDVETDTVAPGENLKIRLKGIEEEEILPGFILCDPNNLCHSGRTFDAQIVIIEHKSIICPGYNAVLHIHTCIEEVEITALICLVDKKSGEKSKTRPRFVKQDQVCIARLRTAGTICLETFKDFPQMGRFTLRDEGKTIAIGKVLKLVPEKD
T1 sequence (Q96SW2 whole entry): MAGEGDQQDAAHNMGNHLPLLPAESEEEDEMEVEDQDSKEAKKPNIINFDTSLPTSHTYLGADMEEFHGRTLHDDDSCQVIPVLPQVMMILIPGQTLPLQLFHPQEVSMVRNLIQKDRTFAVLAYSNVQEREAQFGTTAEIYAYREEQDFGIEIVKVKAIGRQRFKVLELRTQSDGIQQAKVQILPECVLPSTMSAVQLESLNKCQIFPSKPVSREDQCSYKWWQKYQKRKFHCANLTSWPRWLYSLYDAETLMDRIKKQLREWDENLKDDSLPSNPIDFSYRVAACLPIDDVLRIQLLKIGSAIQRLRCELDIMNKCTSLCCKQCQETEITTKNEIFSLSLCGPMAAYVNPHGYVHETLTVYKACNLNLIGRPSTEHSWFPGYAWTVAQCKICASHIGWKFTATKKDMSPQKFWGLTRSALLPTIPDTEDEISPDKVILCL
T1 sequence (Q16531 whole entry partner): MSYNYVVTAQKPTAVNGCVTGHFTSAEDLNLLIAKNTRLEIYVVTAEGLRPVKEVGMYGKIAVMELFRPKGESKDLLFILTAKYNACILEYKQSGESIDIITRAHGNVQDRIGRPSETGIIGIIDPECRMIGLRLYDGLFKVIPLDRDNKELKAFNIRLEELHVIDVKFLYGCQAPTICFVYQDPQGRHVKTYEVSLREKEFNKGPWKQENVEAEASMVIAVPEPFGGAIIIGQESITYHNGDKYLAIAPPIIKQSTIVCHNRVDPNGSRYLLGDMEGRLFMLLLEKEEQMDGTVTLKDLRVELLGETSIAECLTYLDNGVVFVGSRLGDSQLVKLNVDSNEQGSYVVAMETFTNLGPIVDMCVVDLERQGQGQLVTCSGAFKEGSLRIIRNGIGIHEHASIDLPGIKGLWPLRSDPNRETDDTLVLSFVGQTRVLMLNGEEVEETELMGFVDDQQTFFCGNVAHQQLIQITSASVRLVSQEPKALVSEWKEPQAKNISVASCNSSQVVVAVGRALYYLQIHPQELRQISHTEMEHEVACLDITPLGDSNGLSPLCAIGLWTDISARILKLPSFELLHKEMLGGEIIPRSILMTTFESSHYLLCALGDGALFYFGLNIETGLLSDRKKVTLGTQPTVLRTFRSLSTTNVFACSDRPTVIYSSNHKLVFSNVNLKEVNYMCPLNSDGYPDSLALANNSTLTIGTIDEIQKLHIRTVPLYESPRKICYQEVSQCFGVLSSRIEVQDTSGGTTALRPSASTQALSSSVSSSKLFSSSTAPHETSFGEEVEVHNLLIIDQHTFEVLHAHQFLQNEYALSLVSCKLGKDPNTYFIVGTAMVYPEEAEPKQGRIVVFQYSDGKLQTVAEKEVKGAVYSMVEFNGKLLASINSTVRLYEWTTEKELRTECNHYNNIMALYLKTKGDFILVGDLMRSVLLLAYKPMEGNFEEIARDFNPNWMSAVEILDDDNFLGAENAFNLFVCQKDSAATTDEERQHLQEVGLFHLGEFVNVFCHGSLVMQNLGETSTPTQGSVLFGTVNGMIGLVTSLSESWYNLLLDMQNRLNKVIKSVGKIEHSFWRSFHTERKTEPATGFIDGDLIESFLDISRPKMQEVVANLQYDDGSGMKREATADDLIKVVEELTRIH

| inhibition at 0.2 µM [2] | SMILES | IC50 [1] |
| --- | --- | --- |
| < 30% | O=C1CCC(n2ncc3cc(NC(=O)C4=Cc5ccccc5OC4)ccc3c2=O)C(=O)N1 (centres unmarked) [Compound T-25, N-(2-(2,6-Dioxopiperidin-3-yl)-1-oxo-1,2-dihydrophthalazin-6-yl)-2H-chromene-3-carboxamide] | 30 to 300 nM |
| < 30% | O=C1CCC(n2ncc3cc(NC(=O)C4=Cc5cc(F)ccc5OC4)ccc3c2=O)C(=O)N1 (centres unmarked) [Compound T-26, N-(2-(2,6-Dioxopiperidin-3-yl)-1-oxo-1,2-dihydrophthalazin-6-yl)-6-fluoro-2H-chromene-3-carboxamide] | 30 to 300 nM |
| < 30% | O=C1CCC(n2ncc3cc(NC(=O)C4=Cc5cc(OC(F)(F)F)ccc5OC4)ccc3c2=O)C(=O)N1 (centres unmarked) [Compound T-27, N-(2-(2,6-Dioxopiperidin-3-yl)-1-oxo-1,2-dihydrophthalazin-6-yl)-6-(trifluoromethoxy)-2H-chromene-3-carboxamide] | 30 to 300 nM |
| 30 to 70% | O=C1CCC(n2ncc3cc(NC(=O)C4=Cc5cccc(OC(F)(F)F)c5OC4)ccc3c2=O)C(=O)N1 (centres unmarked) [Compound T-28, N-(2-(2,6-Dioxopiperidin-3-yl)-1-oxo-1,2-dihydrophthalazin-6-yl)-8-(trifluoromethoxy)-2H-chromene-3-carboxamide] | 30 to 300 nM |
